A word on the Ki: it is the dissociation constant of the complex between target and ligand, obtained from inhibition or displacement. Lower therefore signals tighter binding.

Consider seven molecules from BindingDB's records for patent WO2024186584 (8932 Hightail Drive, 2024).

One assay has as its target Alpha-synuclein (Homo sapiens, UniProt P37840). Briefly: Alpha-Synuclein Tissue Homogenate Binding Assay. As to the method:
For displacement α-synuclein binding assay, compounds and control were solvated in dimethyl sulfoxide (DMSO) and transferred using focused acoustic energy by an Echo 655 liquid handling instrument (Beckman Coulter, Indianapolis, IN) into designated wells of uniquely bar coded 96-well v-bottom low binding polypropylene microplates (Thermo Scientific, 249946). Compound dose response curves were prepared in a 10-point, 3-fold fashion within columns 2 -11 of the microplate from high to low compound concentrations. The final assay concentration of dose response curves when starting at 1 mM ranged from 1.2 µM to 0.061 nM (0.12 % DMSO final assay concentration, 270 nL/well). Controls included no inhibitor (DMSO only) dispensed into wells A1 – D1, A12 – D12 for minimum efficacy signal and Compound 1000 at a final assay concentration of 12 µM into wells E1 – H1, E12 – H12 for maximum efficacy signal. Liquid-handling steps for dispensing insoluble fractions of PD brain homogenates and 25666 radioligand were performed using a Bravo automated liquid handling platform equipped with a 96LT disposable tip head (Agilent Technologies, Santa Clara, CA). […] A clear adhesive seal (TopSeal-A PLUS, PerkinElmer 6050185) was then applied to the top of each microplate and counted 1 minute/well on MicroBeta2 system (PerkinElmer, Model: 2450-0120).
In turn, `FCOC[C@H]1CN(c2ncc(/C=C/c3ccc(-n4ccnc4)nc3)cn2)CCN1c1ncccn1` [WO2024186584, Example 4] came in with an inhibitory constant (Ki) of 0.0012 µM.
Same read-out and setting: in the case of `COC[C@H]1CN(c2cc(F)ccn2)CCN1c1ncc(/C=C/c2ccc(-n3ccnc3)nc2)cn1` [WO2024186584, Example 17] it was 0.0009 µM.

In the next assay the target is Amyloid-beta precursor protein (Homo sapiens, UniProt P05067). As to the kind of experiment: Competitive radioligand binding to pathological aggregated beta amyloid in AD tissue.
Amyloid-beta precursor protein, sequence (P05067 whole entry): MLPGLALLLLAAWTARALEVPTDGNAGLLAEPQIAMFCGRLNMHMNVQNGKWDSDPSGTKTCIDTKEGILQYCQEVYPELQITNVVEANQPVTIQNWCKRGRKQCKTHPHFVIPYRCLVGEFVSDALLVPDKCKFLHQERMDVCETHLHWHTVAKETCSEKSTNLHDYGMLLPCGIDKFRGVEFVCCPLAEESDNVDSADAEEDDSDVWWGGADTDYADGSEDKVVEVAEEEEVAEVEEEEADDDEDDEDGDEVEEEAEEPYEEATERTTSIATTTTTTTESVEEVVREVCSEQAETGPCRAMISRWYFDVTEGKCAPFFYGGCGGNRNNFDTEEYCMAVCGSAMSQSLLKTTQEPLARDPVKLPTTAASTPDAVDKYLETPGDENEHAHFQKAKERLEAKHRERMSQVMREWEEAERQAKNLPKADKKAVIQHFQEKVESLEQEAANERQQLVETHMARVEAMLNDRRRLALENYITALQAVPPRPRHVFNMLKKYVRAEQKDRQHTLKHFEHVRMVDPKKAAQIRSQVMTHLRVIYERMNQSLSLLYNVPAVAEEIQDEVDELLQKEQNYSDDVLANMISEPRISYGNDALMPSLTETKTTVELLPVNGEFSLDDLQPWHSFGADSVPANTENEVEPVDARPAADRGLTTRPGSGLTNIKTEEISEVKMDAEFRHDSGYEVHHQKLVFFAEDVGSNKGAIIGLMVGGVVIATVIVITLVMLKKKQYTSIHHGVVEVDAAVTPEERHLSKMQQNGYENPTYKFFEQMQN
In turn, `COC[C@H]1CN(c2ncccn2)CCN1c1ncc(/C=C/c2ccc(-n3ccnc3)nc2)cn1` [WO2024186584, Example 28] showed an inhibitory constant (Ki) of 4 µM.
The molecule `COC[C@H]1CN(c2ncc(/C=C/c3ccc(-n4ccnc4)nc3)cn2)CCN1c1ncc(OCC(O)CF)cn1` (stereo partly drawn) [WO2024186584, Example 39] gave an inhibition constant Ki of 4 µM.
As to `FCOC[C@H]1CN(c2ncc(/C=C/c3ccc(-n4ccnc4)nc3)cn2)CCN1c1ncccn1` [WO2024186584, Example 4], the Ki came to 0.1 µM. Against the preceding molecule, the Ki is about 40-fold lower.
Consider `COC[C@H]1CN(c2ncc(C#Cc3ccc(-n4ccnc4)nc3)cn2)CCN1c1cc(F)ncn1` [WO2024186584, Example 12], for which the affinity, expressed as Ki, was 4 µM.
`COC[C@H]1CN(c2ncc(/C=C/c3ccc(-n4ccnc4)nc3)cn2)CCN1c1ncc(OCCF)cn1` [WO2024186584, Example 35] yielded an inhibition constant Ki of 4 µM. This lies in the single-digit micromolar range.
Same read-out and setting: in the case of `FCCOC[C@H]1CN(c2ncc(/C=C/c3ccc(-n4ccnc4)nc3)cn2)CCN1c1ncccn1` [WO2024186584, Example 3] it was 4 µM.
